Assay results published in PMC8548913, “Piezo1–Pannexin1 complex couples force detection to ATP secretion in cholangiocytes” (The Journal of General Physiology, 2021).

Biological target: T1, Piezo1 (Mus musculus, UniProt E2JF22)
T1 construct: native full-length channel in primary cultured cholangiocytes (DIV5) from intrahepatic bile duct units; monomer ~290 kD band reported for GFP-tagged protein
Test: Fura-2 ratiometric Ca2+ imaging
Format: cell-based
Details: agonist; native DIV5 mouse cholangiocytes, 2.5 mM external Ca2+; Yoda1 without effect in Piezo1-knockout HEK293T cells; read-out: apparent EC50
Text: Fura-2 ratiometric Ca2+ imaging on Piezo1 | Concentration-response profile for Yoda1 in mouse DIV5 cholangiocytes, yielding apparent EC50

T1 sequence (E2JF22 whole entry): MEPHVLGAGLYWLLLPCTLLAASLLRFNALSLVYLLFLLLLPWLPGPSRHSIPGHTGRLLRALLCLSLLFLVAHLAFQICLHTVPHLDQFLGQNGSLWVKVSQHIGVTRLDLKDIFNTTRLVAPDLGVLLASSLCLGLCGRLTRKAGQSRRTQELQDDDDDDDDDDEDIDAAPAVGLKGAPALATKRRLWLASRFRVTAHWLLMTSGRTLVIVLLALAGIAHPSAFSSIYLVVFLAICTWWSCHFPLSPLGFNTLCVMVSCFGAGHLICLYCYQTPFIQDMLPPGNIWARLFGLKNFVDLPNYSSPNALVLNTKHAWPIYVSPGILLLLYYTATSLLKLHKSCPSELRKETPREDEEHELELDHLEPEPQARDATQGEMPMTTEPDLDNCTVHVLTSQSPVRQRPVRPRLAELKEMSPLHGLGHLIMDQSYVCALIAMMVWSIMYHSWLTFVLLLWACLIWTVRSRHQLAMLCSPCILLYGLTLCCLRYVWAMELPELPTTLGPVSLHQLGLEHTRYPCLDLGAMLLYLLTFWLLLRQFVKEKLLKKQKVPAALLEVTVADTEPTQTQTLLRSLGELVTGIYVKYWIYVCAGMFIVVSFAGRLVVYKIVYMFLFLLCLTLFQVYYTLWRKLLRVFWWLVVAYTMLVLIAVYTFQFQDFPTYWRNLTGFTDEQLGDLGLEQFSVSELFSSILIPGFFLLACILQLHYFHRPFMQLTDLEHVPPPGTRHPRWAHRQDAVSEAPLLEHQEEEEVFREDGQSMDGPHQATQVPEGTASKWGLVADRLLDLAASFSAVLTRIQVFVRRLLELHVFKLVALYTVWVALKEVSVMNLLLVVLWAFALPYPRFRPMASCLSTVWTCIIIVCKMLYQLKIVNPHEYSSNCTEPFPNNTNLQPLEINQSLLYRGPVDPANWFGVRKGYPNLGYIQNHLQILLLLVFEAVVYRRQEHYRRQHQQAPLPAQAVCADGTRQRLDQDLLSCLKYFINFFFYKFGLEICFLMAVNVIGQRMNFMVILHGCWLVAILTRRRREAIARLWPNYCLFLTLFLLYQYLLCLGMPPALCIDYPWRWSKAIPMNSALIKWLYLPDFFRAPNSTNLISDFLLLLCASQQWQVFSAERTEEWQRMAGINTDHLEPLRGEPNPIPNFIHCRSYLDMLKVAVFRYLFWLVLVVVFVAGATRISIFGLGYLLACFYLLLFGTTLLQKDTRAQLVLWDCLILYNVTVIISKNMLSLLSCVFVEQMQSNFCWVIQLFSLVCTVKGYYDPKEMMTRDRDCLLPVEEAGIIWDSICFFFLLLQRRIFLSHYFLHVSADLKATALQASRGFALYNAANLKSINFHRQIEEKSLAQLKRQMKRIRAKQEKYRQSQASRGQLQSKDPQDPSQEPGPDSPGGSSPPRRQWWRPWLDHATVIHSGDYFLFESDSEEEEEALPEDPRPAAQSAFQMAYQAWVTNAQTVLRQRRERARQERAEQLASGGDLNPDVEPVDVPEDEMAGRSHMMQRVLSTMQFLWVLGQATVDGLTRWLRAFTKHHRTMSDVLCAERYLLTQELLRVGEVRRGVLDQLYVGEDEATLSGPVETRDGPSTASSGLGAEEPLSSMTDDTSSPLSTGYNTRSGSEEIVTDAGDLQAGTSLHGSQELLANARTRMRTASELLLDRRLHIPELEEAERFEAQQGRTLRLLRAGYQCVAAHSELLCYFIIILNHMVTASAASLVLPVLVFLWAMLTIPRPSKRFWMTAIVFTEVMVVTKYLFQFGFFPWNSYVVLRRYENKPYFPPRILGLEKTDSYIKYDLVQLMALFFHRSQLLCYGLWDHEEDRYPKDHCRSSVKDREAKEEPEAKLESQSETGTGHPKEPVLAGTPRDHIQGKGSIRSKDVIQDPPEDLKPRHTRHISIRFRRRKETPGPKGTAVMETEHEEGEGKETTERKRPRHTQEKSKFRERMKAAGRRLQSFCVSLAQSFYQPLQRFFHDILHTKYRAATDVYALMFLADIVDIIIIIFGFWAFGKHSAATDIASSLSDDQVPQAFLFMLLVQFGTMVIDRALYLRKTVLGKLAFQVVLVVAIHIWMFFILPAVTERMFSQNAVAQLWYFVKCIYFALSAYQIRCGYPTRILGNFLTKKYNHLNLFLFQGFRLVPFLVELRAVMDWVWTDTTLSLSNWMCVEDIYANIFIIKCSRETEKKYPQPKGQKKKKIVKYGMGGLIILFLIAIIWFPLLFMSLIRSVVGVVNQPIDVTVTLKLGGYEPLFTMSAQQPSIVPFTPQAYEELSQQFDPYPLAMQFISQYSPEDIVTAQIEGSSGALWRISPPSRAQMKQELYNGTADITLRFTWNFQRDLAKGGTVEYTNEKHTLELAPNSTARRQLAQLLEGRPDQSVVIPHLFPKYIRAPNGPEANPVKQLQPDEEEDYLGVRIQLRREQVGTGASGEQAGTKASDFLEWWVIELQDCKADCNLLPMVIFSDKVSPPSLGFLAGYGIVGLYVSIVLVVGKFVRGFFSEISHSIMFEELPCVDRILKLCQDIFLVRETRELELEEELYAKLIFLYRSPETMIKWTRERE

EC50: 29.4 ± 1.25 µM
Structure (SMILES): Clc1cccc(Cl)c1CSc1nnc(-c2cnccn2)s1 [Yoda1]
